A word on the refractive index: it is a measure of how strongly the sample bends light.

Four molecules from the NIST ThermoML archive (doi:10.1021/je030165y) can be followed below.

Numbers after ± are expanded uncertainties.

This data set can be described thus: refractive index (Na D-line) (dimensionless). To be noted: 298.15 K; 101.33 kPa; Liquid; Standard Abbe refractometry.

`CCCCCC` [hexane]: the refractive index amounted to 1.3722 ± 0.0007.

Regarding `Cc1ccccc1` [toluene], the refractive index was determined as 1.4941 ± 0.0008.

`C1CCCCC1` [cyclohexane]: the refractive index is on record as 1.4236 ± 0.0008.

`COCCOC` [1,2-dimethoxyethane]: the refractive index is reported as 1.3783 ± 0.0008.
